Measurements taken from paper PMC8286840, “Identifying SARS-CoV-2 antiviral compounds by screening for small molecule inhibitors of Nsp3 papain-like protease” (Biochemical Journal, 2021).
Where a name gives a salt, the structure may show the parent alone. Read-outs that look alike come from different tables or passages of the source.

Key:
[1] = molecular target: T1, SARS-CoV-2 PLpro (nsp3 1564–1878) (Severe acute respiratory syndrome coronavirus 2, UniProt P0DTD1); assay: biochemical; design: FRET-quenched peptide (Pro3) cleavage by PLpro, 10 min pre-incubation, slope over 20 min, normalised to no-compound control; conditions: low concentration screen, read-out: % of control remaining
[2] = molecular target: T1, SARS-CoV-2 PLpro (nsp3 1564–1878); assay: biochemical; design: FRET-quenched peptide (Pro3) cleavage by PLpro, 10 min pre-incubation, slope over 20 min, normalised to no-compound control; conditions: high concentration screen, read-out: % of control remaining

Nc1ccn([C@@H]2O[C@H](CO)[C@@H](O)C2(F)F)c(=O)n1 [Gemcitabine]
remaining activity at 1.25 µM ([1]; Well no.=1906): 97.8% | remaining activity at 1.25 µM ([1]; Well no.=8054): 92.7% | remaining activity at 3.75 µM ([2]; Well no.=1906): 98.5% | remaining activity at 3.75 µM ([2]; Well no.=8054): 95%

CN(C)c1ccc(O)c2c1C[C@H]1C[C@H]3[C@H](N(C)C)C(O)=C(C(N)=O)C(=O)[C@@]3(O)C(O)=C1C2=O [Minocycline]
remaining activity at 1.25 µM ([1]; Well no.=1995): 103% | remaining activity at 3.75 µM ([2]; Well no.=1995): 103%

C[C@]1(C(=O)O)CCC[C@]2(C)c3cc(O)ccc3CC[C@@H]12 [Podocarpic acid]
remaining activity at 1.25 µM ([1]; Well no.=3296): 94% | remaining activity at 3.75 µM ([2]; Well no.=3296): 96.2%

CCCN(CCC)CCc1cccc2c1CC(=O)N2 [Ropinirole (hydrochloride)]
remaining activity at 1.25 µM ([1]; Well no.=8205): 99.3% | remaining activity at 3.75 µM ([2]; Well no.=8205): 90.6%

COc1cc2c(cc1CC=C(C)C)C(=O)C[C@@H](c1ccc(O)cc1)O2 [Bavachinin A]
remaining activity at 1.25 µM ([1]; Well no.=3243): 100% | remaining activity at 3.75 µM ([2]; Well no.=3243): 99%

COc1ncc(-c2ccc3nccc(-c4ccnnc4)c3c2)cc1NS(=O)(=O)c1ccc(F)cc1F [GSK2126458]
remaining activity at 1.25 µM ([1]; Well no.=5308): 95.7% | remaining activity at 3.75 µM ([2]; Well no.=5308): 94.1%

O=C(O)Cc1sc(-c2ccccc2)nc1-c1ccc(Cl)cc1 [Fentiazac]
remaining activity at 1.25 µM ([1]; Well no.=1772): 100% | remaining activity at 3.75 µM ([2]; Well no.=1772): 97.2%

Oc1ccc(C2CNCCc3c2cc(O)c(O)c3Cl)cc1 (centres unmarked) [Fenoldopam bromide]
remaining activity at 1.25 µM ([1]; Well no.=757): 98.2% | remaining activity at 3.75 µM ([2]; Well no.=757): 96.8%

Cc1ccc(N(CC2=NCCN2)c2cccc(O)c2)cc1 [Phentolamine (mesylate)]
remaining activity at 1.25 µM ([1]; Well no.=7326): 93.7% | remaining activity at 3.75 µM ([2]; Well no.=7326): 90%

N#Cc1c(Oc2cccc(OS(=O)(=O)CCCC(F)(F)F)c2)cccc1C(F)(F)F [Bay 59-3074]
remaining activity at 1.25 µM ([1]; Well no.=8043): 96.7% | remaining activity at 3.75 µM ([2]; Well no.=8043): 96.5%

COCCOC(=O)C1=C(C)NC(C)=C(C(=O)OC(C)C)C1c1cccc([N+](=O)[O-])c1 (centres unmarked) [Nimodipine]
remaining activity at 1.25 µM ([1]; Well no.=844): 100% | remaining activity at 1.25 µM ([1]; Well no.=1717): 104% | remaining activity at 3.75 µM ([2]; Well no.=844): 97.1% | remaining activity at 3.75 µM ([2]; Well no.=1717): 101%

CCCCS(=N)(=O)CCC(N)C(=O)O [L-Buthionine-sulfoximine]
remaining activity at 1.25 µM ([1]; Well no.=315): 97.6% | remaining activity at 3.75 µM ([2]; Well no.=315): 97.7%

COc1ccc2nc3n[nH]c(C)c3c(NCCOCCO)c2c1 [Ras/Rac Transformation Blocker, SCH 51344]
remaining activity at 1.25 µM ([1]; Well no.=2619): 96.5% | remaining activity at 3.75 µM ([2]; Well no.=2619): 101%

C[N+](C)(C)CC#CCOC(=O)Nc1cccc(Cl)c1 [McN-A-343]
remaining activity at 1.25 µM ([1]; Well no.=184): 102% | remaining activity at 3.75 µM ([2]; Well no.=184): 96.2%

CCCCC/C=C\C/C=C\C/C=C\C/C=C\CCCC(N)=O [Arachidonamide]
remaining activity at 1.25 µM ([1]; Well no.=4336): 108% | remaining activity at 3.75 µM ([2]; Well no.=4336): 104%

CN(C)c1cc2c(Nc3ccc4c(cnn4Cc4ccccc4)c3)ncnc2cn1 [GW2974]
remaining activity at 1.25 µM ([1]; Well no.=523): 103% | remaining activity at 3.75 µM ([2]; Well no.=523): 100%

COc1ccc(C(CN(C)C)C2(O)CCCCC2)cc1 (centres unmarked) [Venlafaxine]
remaining activity at 1.25 µM ([1]; Well no.=2044): 100% | remaining activity at 3.75 µM ([2]; Well no.=2044): 99.4%

C#Cc1cccc(Nc2ncnc3cc4c(cc23)OCCOCCOCCO4)c1 [Icotinib]
remaining activity at 1.25 µM ([1]; Well no.=5229): 92.9% | remaining activity at 3.75 µM ([2]; Well no.=5229): 88.7%

CCOC(=O)C1=C(COCCN)NC(C)=C(C(=O)OC)C1c1ccccc1Cl (centres unmarked) [Amlodipine]
remaining activity at 1.25 µM ([1]; Well no.=1711): 99.1% | remaining activity at 3.75 µM ([2]; Well no.=1711): 99%

O=C(Nc1cccc(Nc2cc(Nc3cccc(C(F)(F)F)c3)ncn2)c1)C1CC1 [EGFR Inhibitor]
remaining activity at 1.25 µM ([1]; Well no.=2403): 106% | remaining activity at 3.75 µM ([2]; Well no.=2403): 103%

C[C@@H]1CN(Cc2ccc(F)cc2)[C@@H](C)CN1C(=O)c1cc2c(C(=O)C(=O)N(C)C)cn(C)c2cc1Cl [Talmapimod]
remaining activity at 1.25 µM ([1]; Well no.=7304): 99.8% | remaining activity at 3.75 µM ([2]; Well no.=7304): 91.9%

O=C(O)[C@@H]1C[C@H](C(=O)O)N1 [cis-Azetidine-2,4-dicarboxylic acid]
remaining activity at 1.25 µM ([1]; Well no.=20): 101% | remaining activity at 3.75 µM ([2]; Well no.=20): 99.7%

Cn1cc(/C=C2\C(=O)Nc3cccnc32)c2ccccc21 [GW441756]
remaining activity at 1.25 µM ([1]; Well no.=2791): 103% | remaining activity at 3.75 µM ([2]; Well no.=2791): 103%

COc1ncnc(NS(=O)(=O)c2ccc(N)cc2)c1OC [Sulfadoxine]
remaining activity at 1.25 µM ([1]; Well no.=2287): 97% | remaining activity at 1.25 µM ([1]; Well no.=7358): 95.6% | remaining activity at 3.75 µM ([2]; Well no.=2287): 92.6% | remaining activity at 3.75 µM ([2]; Well no.=7358): 98%

O=C(/C=C/c1ccc(O)cc1)CC(=O)/C=C/c1ccc(O)cc1 [Bisdemethoxycurcumin]
remaining activity at 1.25 µM ([1]; Well no.=6536): 97.5% | remaining activity at 3.75 µM ([2]; Well no.=6536): 92.4%

O=C(Nc1ccc(C(O)(C(F)(F)F)C(F)(F)F)cc1)c1ccc(C(F)(F)F)cc1 [SR1078]
remaining activity at 1.25 µM ([1]; Well no.=8503): 107% | remaining activity at 3.75 µM ([2]; Well no.=8503): 105%

NCCCP(=O)(O)O [3-Aminopropylphosphonic acid]
remaining activity at 1.25 µM ([1]; Well no.=357): 90.6% | remaining activity at 3.75 µM ([2]; Well no.=357): 93.7%

C=CC(=O)Nc1cc2c(Nc3ccc(F)c(Cl)c3)ncnc2cc1OCCCN1CCOCC1 [Canertinib]
remaining activity at 1.25 µM ([1]; Well no.=2693): 105% | remaining activity at 3.75 µM ([2]; Well no.=2693): 107%

CC[C@H](NC(=O)c1c(O)c(-c2ccccc2)nc2ccccc12)c1ccccc1 [Talnetant]
remaining activity at 1.25 µM ([1]; Well no.=5814): 97.3% | remaining activity at 1.25 µM ([1]; Well no.=8479): 104% | remaining activity at 3.75 µM ([2]; Well no.=5814): 97.8% | remaining activity at 3.75 µM ([2]; Well no.=8479): 100%

C[C@@H](N)C(=O)O [D-Alanine]
remaining activity at 1.25 µM ([1]; Well no.=7693): 107% | remaining activity at 3.75 µM ([2]; Well no.=7693): 105%

O=c1[nH]c2ccccc2n1CCCN1CCC(n2c(=O)[nH]c3cc(Cl)ccc32)CC1 [Domperidone]
remaining activity at 1.25 µM ([1]; Well no.=496): 107% | remaining activity at 1.25 µM ([1]; Well no.=1598): 96.5% | remaining activity at 1.25 µM ([1]; Well no.=7485): 94% | remaining activity at 3.75 µM ([2]; Well no.=496): 104% | remaining activity at 3.75 µM ([2]; Well no.=1598): 99.4% | remaining activity at 3.75 µM ([2]; Well no.=7485): 89.8%

O=c1[nH]c(=O)n([C@H]2C[C@H](O)[C@@H](CO)O2)cc1C(F)(F)F [Trifluridine]
remaining activity at 1.25 µM ([1]; Well no.=6438): 98% | remaining activity at 1.25 µM ([1]; Well no.=8058): 85.9% | remaining activity at 3.75 µM ([2]; Well no.=6438): 98.3% | remaining activity at 3.75 µM ([2]; Well no.=8058): 86.7%

N#CC(C#N)=Cc1ccc(O)c(O)c1 [Tyrphostin 23]
remaining activity at 1.25 µM ([1]; Well no.=1341): 94.2% | remaining activity at 3.75 µM ([2]; Well no.=1341): 93.9%
